In publication PMC12423301, “Astrocytic monoamine oxidase B (MAOB)–gamma-aminobutyric acid (GABA) axis as a molecular brake on repair following spinal cord injury” (Signal Transduction and Targeted Therapy, 2025):

Key:
Safety pharmacology test = settings: in vivo
Experimental: Protocol No. NB_KDS_ADP1_21 Confidential administration of the test substance to rats at a dose of 50-200 mg/kg daily for 2 weeks, there were no deaths.
As a result of oral administration to rats at doses of 30, 50, 75 and 100 mg/kg once daily for 4 weeks, […]
testis, epididymis and lungs. Renal epithelial hyperplasia and inflammatory cells infiltration in the renal pelvis observed in the male and female dose groups of 75 mg/kg or more, germ cell degeneration/loss and seminiferous tubules atrophy observed in the male dose groups of 75 mg/kg or more, and vacuole/degeneration of outer medullary tubules and basophilic tubules observed in the female dose groups were judged to be adverse effects due to administration of the test substance. […] Accordingly, in repeated administrations of rats for 4 weeks, the NOAEL(No Observed Adverse Effect Level) was determined to be 50 mg/kg/day for males and 30 mg/kg for females. […]
In a pharmacokinetic study, plasma PK parameters were measured after a single oral administration of […]
a result of measuring excretion into urine, feces, expiration, and bile, 6.9% was excreted in urine and 48.5% in feces, respectively, up to 168 hours after administration. Excretion to air through respiration was about 0.0% until 48 hours after administration, and 44.1% of the administered radioactivity concentration was present in the body (carcass). […]

[1] = Body weight of rats on medicated drinking water; assay type: in vivo, rat
Experimental: (S)-2-(((4’-Trifluoromethylbiphenyl-4-yl)methyl)amino)propanamide methane-sulfonate (KDS2010) was dissolved in distilled water. For SD rats, KDS2010 was administered via the drinking water ad libitum. […] To evaluate dose-dependent effects, additional groups received 20 mg/kg/day or 30 mg/kg/day starting at PI 2 weeks. To achieve consistent exposure across animals, we meticulously monitored the daily water intake and body weight of each rat throughout the study. As shown in the Extended Data (Supplementary Table 1), water consumption was calculated weekly via a formula based on body weight (e.g., d.w = weight × 0.09 at week 0; gradually tapering to weight × 0.075 by weeks 8–9). Importantly, all animals were confirmed to have consumed the entirety of the provided medicated water each day, ensuring full ingestion of the intended dose (10 mg/kg/day for the majority of groups, and 20/30 mg/kg/day for the dose-dependent experiments).

## CS(=O)(=O)O.C[C@H](NCc1ccc(-c2ccc(C(F)(F)F)cc2)cc1)C(N)=O [KDS2010, (S)-2-(((4’-Trifluoromethylbiphenyl-4-yl)methyl)amino)propanamide methane-sulfonate]
Safety pharmacology test
  effects on central nervous system, respiratory system, and cardiovascular system: no effect
[1]; SCI/KDS 2w 20mpk, 0w
  Weekly change in body weight: 0.00 g
[1]; SCI/KDS 2w 20mpk, 1w
  Weekly change in body weight: 29.33 g
[1]; SCI/KDS 2w 20mpk, 2w
  Weekly change in body weight: 13.61 g
[1]; SCI/KDS 2w 20mpk, 3w
  Weekly change in body weight: 54.00 g
[1]; SCI/KDS 2w 20mpk, 4s
  Weekly change in body weight: 16.28 g
[1]; SCI/KDS 2w 20mpk, 5s
  Weekly change in body weight: 31.61 g
[1]; SCI/KDS 2w 20mpk, 6s
  Weekly change in body weight: 12.56 g
[1]; SCI/KDS 2w 20mpk, 7w
  Weekly change in body weight: 24.17 g
[1]; SCI/KDS 2w 20mpk, 8w
  Weekly change in body weight: 13.00 g
[1]; SCI/KDS 2w 20mpk, 9w
  Weekly change in body weight: 10.89 g
[1]; SCI/KDS 2w 30mpk, 0w
  Weekly change in body weight: 0.00 g
[1]; SCI/KDS 2w 30mpk, 1w
  Weekly change in body weight: 34.43 g
[1]; SCI/KDS 2w 30mpk, 2w
  Weekly change in body weight: 10.86 g
[1]; SCI/KDS 2w 30mpk, 3w
  Weekly change in body weight: 39.90 g
[1]; SCI/KDS 2w 30mpk, 4s
  Weekly change in body weight: 17.36 g
[1]; SCI/KDS 2w 30mpk, 5s
  Weekly change in body weight: 22.40 g
[1]; SCI/KDS 2w 30mpk, 6s
  Weekly change in body weight: 10.84 g
[1]; SCI/KDS 2w 30mpk, 7w
  Weekly change in body weight: 19.91 g
[1]; SCI/KDS 2w 30mpk, 8w
  Weekly change in body weight: 17.56 g
[1]; SCI/KDS 2w 30mpk, 9w
  Weekly change in body weight: 3.43 g
[1]; SCI/KDS 2w, 0w
  Weekly change in body weight: 0.00 g
[1]; SCI/KDS 2w, 1w
  Weekly change in body weight: 47.67 g
[1]; SCI/KDS 2w, 2w
  Weekly change in body weight: 16.00 g
[1]; SCI/KDS 2w, 3w
  Weekly change in body weight: 33.67 g
[1]; SCI/KDS 2w, 4s
  Weekly change in body weight: 31.00 g
[1]; SCI/KDS 2w, 5s
  Weekly change in body weight: 31.33 g
[1]; SCI/KDS 2w, 6s
  Weekly change in body weight: 16.67 g
[1]; SCI/KDS 2w, 7w
  Weekly change in body weight: 18.33 g
[1]; SCI/KDS 2w, 8w
  Weekly change in body weight: 11.67 g
[1]; SCI/KDS 2w, 9w
  Weekly change in body weight: 7.17 g
[1]; SCI/KDS 2w, 10w
  Weekly change in body weight: 14.50 g
[1]; SCI/KDS 2w, 11w
  Weekly change in body weight: 8.00 g
[1]; SCI/KDS 2w, 12w
  Weekly change in body weight: 1.50 g
[1]; SCI/KDS 2w, 13w
  Weekly change in body weight: 7.50 g
[1]; SCI/KDS 6w, 0w
  Weekly change in body weight: 0.00 g
[1]; SCI/KDS 6w, 1w
  Weekly change in body weight: 24.00 g
[1]; SCI/KDS 6w, 2w
  Weekly change in body weight: 27.50 g
[1]; SCI/KDS 6w, 3w
  Weekly change in body weight: 36.00 g
[1]; SCI/KDS 6w, 4s
  Weekly change in body weight: 31.50 g
[1]; SCI/KDS 6w, 5s
  Weekly change in body weight: 14.50 g
[1]; SCI/KDS 6w, 6s
  Weekly change in body weight: 13.00 g
[1]; SCI/KDS 6w, 7w
  Weekly change in body weight: 17.50 g
[1]; SCI/KDS 6w, 8w
  Weekly change in body weight: 7.00 g
[1]; SCI/KDS 6w, 9w
  Weekly change in body weight: 13.00 g
[1]; SCI/KDS 6w, 10w
  Weekly change in body weight: 11.00 g
[1]; SCI/KDS 6w, 11w
  Weekly change in body weight: 8.00 g
[1]; SCI/KDS 6w, 12w
  Weekly change in body weight: 7.00 g
[1]; SCI/KDS 6w, 13w
  Weekly change in body weight: 8.00 g
[1]; SCI/KDS 1d, 0w
  Weekly change in body weight: 0.00 g
[1]; SCI/KDS 1d, 1w
  Weekly change in body weight: -44.55 g
[1]; SCI/KDS 1d, 2w
  Weekly change in body weight: 21.82 g
[1]; SCI/KDS 1d, 3w
  Weekly change in body weight: 23.03 g
[1]; SCI/KDS 1d, 4s
  Weekly change in body weight: 50.91 g
[1]; SCI/KDS 1d, 5s
  Weekly change in body weight: 28.03 g
[1]; SCI/KDS 1d, 6s
  Weekly change in body weight: 16.82 g
[1]; SCI/KDS 1d, 7w
  Weekly change in body weight: 19.85 g
[1]; SCI/KDS 1d, 8w
  Weekly change in body weight: 14.70 g
[1]; SCI/KDS 1d, 9w
  Weekly change in body weight: 7.88 g
[1]; Sham/KDS 2w, 0w
  Weekly change in body weight: 0.00 g
[1]; Sham/KDS 2w, 1w
  Weekly change in body weight: 33.00 g
[1]; Sham/KDS 2w, 2w
  Weekly change in body weight: 17.00 g
[1]; Sham/KDS 2w, 3w
  Weekly change in body weight: 32.00 g
[1]; Sham/KDS 2w, 4s
  Weekly change in body weight: 31.00 g
[1]; Sham/KDS 2w, 5s
  Weekly change in body weight: 21.00 g
[1]; Sham/KDS 2w, 6s
  Weekly change in body weight: 8.00 g
[1]; Sham/KDS 2w, 7w
  Weekly change in body weight: 25.00 g
[1]; Sham/KDS 2w, 8w
  Weekly change in body weight: 10.00 g
[1]; Sham/KDS 2w, 9w
  Weekly change in body weight: 10.00 g
[1]; Sham/KDS 1d, 0w
  Weekly change in body weight: 0.00 g
[1]; Sham/KDS 1d, 1w
  Weekly change in body weight: 26.67 g
[1]; Sham/KDS 1d, 2w
  Weekly change in body weight: 3.33 g
[1]; Sham/KDS 1d, 3w
  Weekly change in body weight: 30.00 g
[1]; Sham/KDS 1d, 4s
  Weekly change in body weight: 50.00 g
[1]; Sham/KDS 1d, 5s
  Weekly change in body weight: 25.00 g
[1]; Sham/KDS 1d, 6s
  Weekly change in body weight: 21.67 g
[1]; Sham/KDS 1d, 7w
  Weekly change in body weight: 18.33 g
[1]; Sham/KDS 1d, 8w
  Weekly change in body weight: 8.33 g
[1]; Sham/KDS 1d, 9w
  Weekly change in body weight: 23.33 g
